Measurements from patent US20200131142A1, “FARNESOID X RECEPTOR AGONISTS AND USES THEREOF” (Metacrine, Inc., priority 2017, published 2020).
pEC50: −log10 of the molar value.

molecular target: T1, hFXR (Homo sapiens, UniProt Q96RI1); assay: In Vitro FXR Assay (TK): hFXR/hRXR TK-ECRE-luc reporter in transfected CV-1 cells; type: cell-based; conditions: 18 hrs incubation, luminescence, compounds with maximum efficacy <25% of the Fexarmine control classified as '+'
T1 construct: expressed in transfected cells; host or cells: CV-1 cells
T1 sequence (Q96RI1 1-486): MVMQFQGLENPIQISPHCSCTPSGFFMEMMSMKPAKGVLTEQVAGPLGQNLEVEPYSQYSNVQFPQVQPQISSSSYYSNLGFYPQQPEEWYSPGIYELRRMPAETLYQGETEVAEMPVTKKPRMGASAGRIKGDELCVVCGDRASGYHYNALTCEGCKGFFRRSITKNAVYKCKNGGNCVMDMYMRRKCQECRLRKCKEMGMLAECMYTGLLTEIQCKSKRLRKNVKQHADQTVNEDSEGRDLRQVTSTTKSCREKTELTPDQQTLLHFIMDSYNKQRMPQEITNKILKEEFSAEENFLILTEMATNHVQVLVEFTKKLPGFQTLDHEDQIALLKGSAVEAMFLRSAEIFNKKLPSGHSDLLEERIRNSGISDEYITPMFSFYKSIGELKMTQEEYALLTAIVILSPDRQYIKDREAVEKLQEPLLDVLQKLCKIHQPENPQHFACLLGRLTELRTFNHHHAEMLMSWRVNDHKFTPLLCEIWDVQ
T1 sequence (P19793 1-462 partner): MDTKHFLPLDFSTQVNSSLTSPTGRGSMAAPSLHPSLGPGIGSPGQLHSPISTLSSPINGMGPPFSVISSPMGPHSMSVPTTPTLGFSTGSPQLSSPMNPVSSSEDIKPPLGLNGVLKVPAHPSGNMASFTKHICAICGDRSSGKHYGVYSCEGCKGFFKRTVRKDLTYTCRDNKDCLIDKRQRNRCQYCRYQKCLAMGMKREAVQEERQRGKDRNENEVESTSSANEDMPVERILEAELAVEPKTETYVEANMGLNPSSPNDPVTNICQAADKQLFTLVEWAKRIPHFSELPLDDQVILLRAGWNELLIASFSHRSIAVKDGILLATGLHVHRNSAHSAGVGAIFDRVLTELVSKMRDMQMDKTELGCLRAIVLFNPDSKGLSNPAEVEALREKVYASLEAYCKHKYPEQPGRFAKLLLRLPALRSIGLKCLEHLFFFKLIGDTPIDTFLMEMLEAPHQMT
Procedure: Example B-1: In Vitro FXR Assay (TK)
CV-1 cells were seeded at a density of 2,000,000 cells in a T175 flask with DMEM+10% charcoal double-stripped FBS and incubated at 37° C. in 5% CO2 for 18 h (O/N).
After 18 h of incubation, the medium in the T175 flask was changed with fresh DMEM+10% charcoal super-stripped serum. In a polypropylene tube, 2500 μL OptiMEM (Life Technologies, Cat #31985-062) was combined with expression plasmids for hFXR, hRXR, TK-ECRE-luc and pCMX-YFP. The tube was then briefly vortexed and incubated at room temperature for 5 minutes. Transfection reagent (X-tremeGENE HP from Roche, Cat #06 366 236 001) was added to the OptiMEM/plasmid mixture vortexed and incubated at room temperature for 20 minutes. Following incubation, the transfection reagent/DNA mixture complex was added to cells in the T175 flask and the cells were incubated at 37° C. in 5% CO2 for 18 h (O/N).
Compounds were serially diluted in DMSO and added to transfected CV-1 cells. The cells were then incubated for 18 hrs. The next day cells were lysed and examined for luminescence.

**Q.** With `COc1ccc([C@H]2CC[C@H](CN(c3cc(-c4cnc(C(C)C)s4)ccn3)C(=O)[C@H]3CC[C@H](O)CC3)CC2)cc1C` [Compound 9.28, trans-4-Hydroxy-N-(4-(2-isoporpylthiazol-5-yl)pyridin-2-yl)-N-((trans-4-(4-methoxy-3-methylphenyl)cyclohexyl)methyl) cyclohexanecarboxamide] as the compound, how does the pEC50 read?
**A.** ≥ 6.60

**Q.** With `CC#Cc1ncc(-c2cccc(N(C[C@H]3CC[C@H](c4ccc(OC)c(C)c4)CC3)C(=O)[C@H]3CC[C@H](O)CC3)c2)s1` [Compound 7.21, trans-4-Hydroxy-N-((trans-4-(4-methoxy-3-methylphenyl)cyclohexyl)methyl)-N-(3-(2-(prop-1-yn-1-yl)thiazol-5-yl)phenyl)cyclohexanecarboxamide] as the compound, how does the pEC50 read?
**A.** ≥ 6.60

**Q.** How did the pEC50 turn out when `COc1ccc([C@H]2CC[C@H](CN(c3cccc(-c4nc(C)cs4)c3)C(=O)[C@H]3CC[C@H](O)CC3)CC2)cc1C` [Compound 7.01, trans-4-Hydroxy-N-((trans-4-(4-methoxy-3-methylphenyl)cyclohexyl)methyl)-N-(3-(4-methylthiazol-2-yl)phenyl)cyclohexanecarboxamide] was run?
**A.** ≤ 6.00

**Q.** How did the pEC50 turn out when `COc1ccc([C@H]2CC[C@H](CN(c3cccc(-c4cnc(C(F)(F)F)s4)c3)C(=O)[C@H]3CC[C@H](O)CC3)CC2)cc1C` [Compound 7.23, trans-4-Hydroxy-N-((trans-4-(4-methoxy-3-methylphenyl)cyclohexyl)methyl)-N-(3-(2-(trifluoromethyl)thiazol-5-yl)phenyl)cyclohexanecarboxamide] was run?
**A.** ≥ 6.60

**Q.** How did the pEC50 turn out when `COc1ccc([C@H]2CC[C@H](CN(c3cccc(-c4cnc(C5CC5)s4)c3)C(=O)[C@H]3CC[C@H](O)CC3)CC2)nc1C#N` [Compound 9.21, trans-N-((trans-4-(6-Cyano-5-methoxypyridin-2-yl)cyclohexyl)methyl)-N-(3-(2-cyclopropylthiazol-5-yl)phenyl)-4-hydroxycyclohexanecarboxamide] was run?
**A.** ≥ 6.60

**Q.** `COc1ncc(-c2cccc(N(C[C@H]3CC[C@H](c4ccc(OC)c(C)c4)CC3)C(=O)[C@H]3CC[C@H](O)CC3)c2)s1` [Compound 1, trans-4-Hydroxy-N-((trans-4-(4-methoxy-3-methylphenyl)cyclohexyl)methyl)-N-(3-(2-methoxythiazol-5-yl)phenyl)cyclohexanecarboxamide] was tested. Which pEC50 did it give?
**A.** ≥ 6.60

**Q.** With `COc1ccc([C@H]2CC[C@H](CN(c3cccc(-c4cnc(OC(F)F)s4)c3)C(=O)[C@H]3CC[C@H](O)CC3)CC2)cc1C` [Compound 9.01, trans-N-(3-(2-(Difluoromethoxy)thiazol-5-yl)phenyl)-4-hydroxy-N-((trans-4-(4-methoxy-3-methylphenyl)cyclohexyl)methyl) cyclohexanecarboxamide] as the compound, how does the pEC50 read?
**A.** ≥ 6.60

**Q.** How did the pEC50 turn out when `COc1ccc([C@H]2CC[C@H](CN(c3cccc(-c4cnc(C(F)F)s4)c3)C(=O)[C@H]3CC[C@H](O)CC3)CC2)cc1C` [Compound 7.22, trans-N-(3-(2-(Difluoromethyl)thiazol-5-yl)phenyl)-4-hydroxy-N-((trans-4-(4-methoxy-3-methylphenyl)cyclohexyl)methyl) cyclohexanecarboxamide] was run?
**A.** ≥ 6.60

**Q.** `COc1ncc(-c2cccc(N(C[C@@H]3CC[C@@H](c4ccc(OC)c(C)c4)CC3C)C(=O)[C@H]3CC[C@H](O)CC3)c2)s1` (stereo partly drawn) [Compound 9.11, trans-4-Hydroxy-N-((trans-4-(4-methoxy-3-methylphenyl)-2-methylcyclohexyl)methyl)-N-(3-(2-methoxythiazol-5-yl)phenyl)cyclohexanecarboxamide] was tested. Which pEC50 did it give?
**A.** ≥ 6.60

**Q.** `COc1ccc([C@H]2CC[C@H](CN(c3cccc(-c4cnc(C(C)=O)s4)c3)C(=O)[C@H]3CC[C@H](O)CC3)CC2)cc1C` [Compound 7.24, trans-N-(3-(2-Acetylthiazol-5-yl)phenyl)-4-hydroxy-N-((trans-4-(4-methoxy-3-methylphenyl)cyclohexyl)methyl) cyclohexanecarboxamide] was tested. Which pEC50 did it give?
**A.** 6.00 to 6.60

**Q.** With `COc1ncc(-c2cccc(N(C[C@H]3CC[C@H](c4ccc(N(C)C)nc4)CC3)C(=O)[C@H]3CC[C@H](O)CC3)c2)s1` [Compound 9.08, trans-N-((trans-4-(6-(Dimethylamino)pyridin-3-yl)cyclohexyl)mtehyl)-4-hydroxy-N-(3-(2-methoxythiazol-5-yl)phenyl)cyclohexanecarboxamide] as the compound, how does the pEC50 read?
**A.** ≥ 6.60

**Q.** With `COc1ccc([C@H]2CC[C@H](CN(c3cccc(CCc4nccs4)c3)C(=O)[C@H]3CC[C@H](O)CC3)CC2)cc1C` [Compound 6.07, trans-4-Hydroxy-N-((trans-4-(4-methoxy-3-methylphenyl)cyclohexyl)methyl)-N-(3-(2-(thiazol-2-yl)ethyl)phenyl)cyclohexanecarboxamide] as the compound, how does the pEC50 read?
**A.** ≥ 6.60

**Q.** How did the pEC50 turn out when `COc1ccc([C@H]2CC[C@H](CN(c3cccc(-c4cnc(C5CC5)s4)c3)C(=O)[C@H]3CC[C@H](O)CC3)CC2)cc1C#N` [Compound 7.29, trans-N-((trans-4-(3-Cyano-4-methoxyphenyl)cyclohexyl)methyl)-N-(3-(2-cyclopropylthiazol-5-yl)phenyl)-4-hydroxycyclohexanecarboxamide] was run?
**A.** ≥ 6.60

**Q.** With `COc1ccc([C@H]2CC[C@H](CN(c3cccc(-c4cnc(C5CC5)s4)c3)C(=O)[C@H]3CC[C@H](O)CC3)CC2)cc1S(C)(=O)=O` [Compound 9.26, trans-N-(3-(2-Cyclopropylthiazol-5-yl)phenyl)-4-hydroxy-N-((trans-4-(4-methoxy-3-(methylsulfonyl)phenyl)cyclohexyl)methyl) cyclohexanecarboxamide] as the compound, how does the pEC50 read?
**A.** ≥ 6.60

**Q.** How did the pEC50 turn out when `COc1ccc([C@H]2CC[C@H](CN(c3cccc(-c4cnc(-c5ccccc5)s4)c3)C(=O)[C@H]3CC[C@H](O)CC3)CC2)cc1C` [Compound 7.10, trans-4-Hydroxy-N-((trans-4-(4-methoxy-3-methylphenyl)cyclohexyl)methyl)-N-(3-(2-phenylthiazol-5-yl)phenyl)cyclohexanecarboxamide] was run?
**A.** ≥ 6.60

**Q.** With `COc1ccc([C@H]2CC[C@H](CN(c3cc(-c4cnc(C5CC5)s4)ccn3)C(=O)[C@H]3CC[C@H](O)CC3)CC2)nc1C` [Compound 9.20, trans-N-(4-(2-Cyclopropylthiazol-5-yl)pyridin-2-yl)-4-hydroxy-N-((trans-4-(5-methoxy-6-methylpyridin-2-yl)cyclohexyl)methyl)cyclohexanecarboxamide] as the compound, how does the pEC50 read?
**A.** ≥ 6.60

**Q.** `Cn1ncc2cc([C@H]3CC[C@H](CN(c4cccc(-c5cnc(C6CC6)s5)c4)C(=O)[C@H]4CC[C@H](O)CC4)CC3)ccc21` [Compound 9.16, trans-N-(3-(2-Cyclopropylthiaol-5-yl)phenyl)-4-hydroxy-N-((trans-4-(1-methyl-1H-indazol-5-yl)cyclohexyl)methyl)cyclohexanecarboxamide] was tested. Which pEC50 did it give?
**A.** ≥ 6.60

**Q.** How did the pEC50 turn out when `COc1ccc([C@H]2CC[C@H](CN(c3cc(-c4cnc(C5CC5)s4)ccn3)C(=O)[C@H]3CC[C@H](O)CC3)CC2)cc1C#N` [Compound 9.22, trans-N-((trans-4-(3-Cyano-4-methoxyphenyl)cyclohexyl)methyl)-N-(4-(2-cyclopropylthiazol-5-yl)pyridin-2-yl)-4-hydroxycyclohexanecarboxamide] was run?
**A.** ≥ 6.60

**Q.** `COc1ccc([C@H]2CC[C@H](CN(c3cccc(CNc4nccs4)c3)C(=O)[C@H]3CC[C@H](O)CC3)CC2)cc1C` [Compound 14, trans-4-Hydroxy-N-((trans-4-(4-methoxy-3-methylphenyl)cyclohexyl)methyl)-N-(3-((thiazol-2-ylamino)methyl)phenyl)cyclohexanecarboxamide] was tested. Which pEC50 did it give?
**A.** ≤ 6.00

**Q.** `COc1ccc([C@H]2CC[C@H](CN(c3cccc(-c4cnc(SC)s4)c3)C(=O)[C@H]3CC[C@H](O)CC3)CC2)cc1C` [Compound 7.11, trans-4-Hydroxy-N-((trans-4-(4-methoxy-3-methylphenyl)cyclohexyl)methyl)-N-(3-(2-(methylthio)thiazol-5-yl)phenyl)cyclohexanecarboxamide] was tested. Which pEC50 did it give?
**A.** ≥ 6.60
